Measurements published in ChEMBL document CHEMBL5113511, “Discovery of Small-Molecule Degraders of the CDK9-Cyclin T1 Complex for Targeting Transcriptional Addiction in Prostate Cancer” (J Med Chem, 2022).
The source made the active and inactive calls. The rule behind the calls is not given here.

How the values were obtained:
[1] = biological target: T1, Cyclin-dependent kinase 9 (Homo sapiens, UniProt P50750); test: Induction of HyT-mediated degradation of CDK9 in human 22Rv1 cells at 0.3 to 3 uM incubated for 24 hrs by immunoblot analysis; type: cell-based; conditions: dose 0.3-3 µM
T1 sequence (P50750 whole entry): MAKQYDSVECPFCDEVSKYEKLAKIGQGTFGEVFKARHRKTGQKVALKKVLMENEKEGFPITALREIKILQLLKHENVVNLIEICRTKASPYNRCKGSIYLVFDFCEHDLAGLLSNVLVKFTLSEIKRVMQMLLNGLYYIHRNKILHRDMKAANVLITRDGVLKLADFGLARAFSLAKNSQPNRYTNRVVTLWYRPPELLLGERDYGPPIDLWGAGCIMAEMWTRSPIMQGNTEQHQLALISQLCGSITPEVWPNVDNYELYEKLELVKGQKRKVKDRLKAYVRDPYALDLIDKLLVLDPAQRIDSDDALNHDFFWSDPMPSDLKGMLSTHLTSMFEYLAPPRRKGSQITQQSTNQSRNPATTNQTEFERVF

[2] = biological target: T2, Cyclin-T1 (Homo sapiens, UniProt O60563); test: Induction of HyT-mediated degradation of Cyclin T1 in human 22Rv1 cells assessed as reduction in Cyclin T1 level at 3 uM incubated for 24 hrs by immunoblot analysis; type: cell-based
T2 sequence (O60563 whole entry): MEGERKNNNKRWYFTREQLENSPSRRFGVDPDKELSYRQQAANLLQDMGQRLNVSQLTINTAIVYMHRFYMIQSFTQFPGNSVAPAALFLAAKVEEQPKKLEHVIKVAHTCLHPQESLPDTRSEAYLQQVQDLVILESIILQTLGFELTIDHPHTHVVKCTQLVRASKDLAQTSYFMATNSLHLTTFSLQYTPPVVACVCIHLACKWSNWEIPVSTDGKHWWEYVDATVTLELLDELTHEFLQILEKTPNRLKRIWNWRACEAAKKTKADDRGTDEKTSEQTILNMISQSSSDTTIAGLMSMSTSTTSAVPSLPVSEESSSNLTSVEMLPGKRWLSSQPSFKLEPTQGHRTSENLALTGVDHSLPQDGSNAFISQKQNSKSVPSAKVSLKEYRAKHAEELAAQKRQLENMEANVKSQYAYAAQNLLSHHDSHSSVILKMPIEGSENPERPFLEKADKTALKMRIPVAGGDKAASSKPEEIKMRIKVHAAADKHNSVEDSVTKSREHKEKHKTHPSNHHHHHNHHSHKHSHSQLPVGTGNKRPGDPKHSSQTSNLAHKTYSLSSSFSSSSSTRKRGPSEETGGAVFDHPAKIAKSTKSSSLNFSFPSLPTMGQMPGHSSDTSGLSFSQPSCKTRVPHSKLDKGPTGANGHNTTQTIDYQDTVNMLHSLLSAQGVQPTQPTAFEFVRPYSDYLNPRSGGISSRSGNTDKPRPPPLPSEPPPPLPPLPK

[3] = biological target: T2, Cyclin-T1; test: Induction of HyT-mediated degradation of Cyclin T1 in human 22Rv1 cells at 0.3 to 3 uM incubated for 24 hrs by immunoblot analysis; type: cell-based; conditions: dose 0.3-3 µM
[4] = biological target: T1, Cyclin-dependent kinase 9; test: Induction of CDK9 degradation in human 22Rv1 cells at 3 uM incubated for 24 hrs by DIA-based proteomics analysis; type: cell-based
[5] = biological target: T2, Cyclin-T1; test: Induction of Cyclin T1 degradation in human 22Rv1 cells assessed as cyclin T1 level at 3 uM incubated for 24 hrs by DIA-based proteomics analysis; type: cell-based
[6] = system: CWR22R; test: Downregulation of CCNT1 mRNA expression in human 22Rv1 cells at 2 uM incubated for 24 hrs by transcriptome RNA-seq analysis; type: functional, cell-based
[7] = biological target: T1, Cyclin-dependent kinase 9; test: Induction of degradation of CDK9 in human 22Rv1 cells at 3 uM measured for 36 hrs by DIA-based proteomics analysis; type: cell-based
[8] = biological target: T1, Cyclin-dependent kinase 9; test: Induction of degradation of CDK9 in human 22Rv1 cells at 2 uM measured after 0 to 7 hrs by immunoblot analysis; type: cell-based; conditions: time 0-7 hrs
[9] = biological target: T1, Cyclin-dependent kinase 9; test: Induction of degradation of CDK9 in human 22Rv1 cells assessed as reduction in CDK9 level at 2 uM measured after 9 hrs by immunoblot analysis; type: cell-based
[10] = biological target: Cyclin-dependent kinase 1 (Homo sapiens) (UniProt P06493); test: Induction of CDK1 degradation in human 22Rv1 cells assessed as downregulation of CDK1 level at 3 uM measured after 12 hrs by DIA-based proteomics analysis; type: cell-based
Chain of Cyclin-dependent kinase 1 (Homo sapiens) (P06493 whole entry, looked up): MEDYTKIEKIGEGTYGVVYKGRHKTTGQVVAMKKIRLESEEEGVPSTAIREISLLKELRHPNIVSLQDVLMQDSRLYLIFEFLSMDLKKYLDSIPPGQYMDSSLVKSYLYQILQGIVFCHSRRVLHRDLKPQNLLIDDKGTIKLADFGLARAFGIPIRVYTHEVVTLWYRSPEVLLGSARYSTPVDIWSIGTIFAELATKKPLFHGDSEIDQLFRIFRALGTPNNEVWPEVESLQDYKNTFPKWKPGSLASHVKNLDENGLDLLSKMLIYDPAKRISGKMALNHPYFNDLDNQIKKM

[11] = biological target: Cyclin-dependent kinase 4 (Homo sapiens) (UniProt P11802); test: Induction of CDK4 degradation in human 22Rv1 cells assessed as downregulation of CDK4 level at 3 uM measured after 12 hrs by DIA-based proteomics analysis; type: cell-based
Chain of Cyclin-dependent kinase 4 (Homo sapiens) (P11802 whole entry): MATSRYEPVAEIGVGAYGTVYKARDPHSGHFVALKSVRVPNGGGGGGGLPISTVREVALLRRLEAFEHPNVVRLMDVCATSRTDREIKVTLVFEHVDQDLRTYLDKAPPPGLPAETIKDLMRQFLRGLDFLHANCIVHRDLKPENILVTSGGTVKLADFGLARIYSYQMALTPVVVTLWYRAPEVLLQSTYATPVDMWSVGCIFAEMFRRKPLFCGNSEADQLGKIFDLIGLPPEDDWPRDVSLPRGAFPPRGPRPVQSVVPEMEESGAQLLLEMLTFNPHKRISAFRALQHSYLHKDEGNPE

[12] = biological target: Cyclin-dependent kinase 6 (Homo sapiens) (UniProt Q00534); test: Induction of CDK6 degradation in human 22Rv1 cells assessed as downregulation of CDK6 level at 3 uM measured after 12 hrs by DIA-based proteomics analysis; type: cell-based
Chain of Cyclin-dependent kinase 6 (Homo sapiens) (Q00534 whole entry): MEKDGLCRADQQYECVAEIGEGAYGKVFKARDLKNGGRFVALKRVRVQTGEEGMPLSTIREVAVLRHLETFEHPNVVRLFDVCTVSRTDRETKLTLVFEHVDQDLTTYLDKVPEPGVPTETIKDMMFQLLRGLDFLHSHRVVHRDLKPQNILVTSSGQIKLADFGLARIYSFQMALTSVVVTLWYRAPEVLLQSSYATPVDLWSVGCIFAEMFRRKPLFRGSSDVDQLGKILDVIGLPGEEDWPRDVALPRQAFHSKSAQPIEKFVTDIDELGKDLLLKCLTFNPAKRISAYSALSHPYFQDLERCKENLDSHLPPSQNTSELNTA

[13] = biological target: Cyclin-dependent kinase 7 (Homo sapiens) (UniProt P50613); test: Induction of CDK7 degradation in human 22Rv1 cells assessed as downregulation of CDK7 level at 3 uM measured after 12 hrs by DIA-based proteomics analysis; type: cell-based
Chain of Cyclin-dependent kinase 7 (Homo sapiens) (P50613 whole entry): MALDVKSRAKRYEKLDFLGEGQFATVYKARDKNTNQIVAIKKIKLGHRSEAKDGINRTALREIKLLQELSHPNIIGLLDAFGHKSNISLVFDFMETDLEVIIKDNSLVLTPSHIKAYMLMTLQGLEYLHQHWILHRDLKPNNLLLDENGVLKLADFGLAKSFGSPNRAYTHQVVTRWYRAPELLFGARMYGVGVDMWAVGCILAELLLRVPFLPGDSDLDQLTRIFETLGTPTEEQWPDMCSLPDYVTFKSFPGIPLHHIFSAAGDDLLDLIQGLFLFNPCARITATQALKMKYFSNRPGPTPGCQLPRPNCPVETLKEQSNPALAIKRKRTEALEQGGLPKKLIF

[14] = biological target: Cyclin-dependent kinase 11B (Homo sapiens) (UniProt P21127); test: Induction of CDK11B degradation in human 22Rv1 cells at 3 uM measured after 36 hrs by DIA-based proteomics analysis; type: cell-based
Chain of Cyclin-dependent kinase 11B (Homo sapiens) (P21127 whole entry): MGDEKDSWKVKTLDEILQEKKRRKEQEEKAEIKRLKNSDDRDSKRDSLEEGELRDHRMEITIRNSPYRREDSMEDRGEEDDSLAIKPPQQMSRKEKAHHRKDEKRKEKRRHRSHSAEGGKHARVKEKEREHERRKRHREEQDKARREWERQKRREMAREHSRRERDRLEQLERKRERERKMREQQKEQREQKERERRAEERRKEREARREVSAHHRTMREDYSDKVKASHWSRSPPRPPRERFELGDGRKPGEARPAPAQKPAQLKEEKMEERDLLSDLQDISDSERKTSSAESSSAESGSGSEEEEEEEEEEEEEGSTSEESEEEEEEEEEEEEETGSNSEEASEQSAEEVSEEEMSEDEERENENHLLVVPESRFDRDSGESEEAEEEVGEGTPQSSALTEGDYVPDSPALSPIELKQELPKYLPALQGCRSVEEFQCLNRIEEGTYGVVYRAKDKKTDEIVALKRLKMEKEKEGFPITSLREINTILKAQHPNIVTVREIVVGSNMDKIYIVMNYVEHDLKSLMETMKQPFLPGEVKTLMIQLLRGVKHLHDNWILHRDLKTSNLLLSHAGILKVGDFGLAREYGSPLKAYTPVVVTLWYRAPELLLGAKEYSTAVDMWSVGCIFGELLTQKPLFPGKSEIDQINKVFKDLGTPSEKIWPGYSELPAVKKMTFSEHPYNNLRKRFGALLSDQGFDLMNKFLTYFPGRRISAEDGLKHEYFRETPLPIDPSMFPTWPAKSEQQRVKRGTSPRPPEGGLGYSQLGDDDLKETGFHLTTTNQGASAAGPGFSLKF

[15] = biological target: T2, Cyclin-T1; test: Induction of degradation of Cyclin T1 in human 22Rv1 cells at 3 uM measured for 36 hrs by DIA-based proteomics analysis; type: cell-based
[16] = system: CWR22R; test: Antiproliferative activity against human 22Rv1 cells assessed as reduction in cell viability measured after 5 days by CellTiter-Glo assay; type: functional, cell-based; conditions: 22Rv1, 120 h
[17] = system: CWR22R; test: Inhibition of colony formation in human 22Rv1 cells at 100 to 200 nM treated for 14 days with replacement with fresh medium containing compound for every 48 hrs by crystal violet staining based analysis; type: functional, cell-based; conditions: dose 100-200 nM, time 14.0 day
[18] = system: CWR22R; test: Induction of cell cycle arrest in human 22Rv1 cells assessed as accumulation of cells at G1 phase at 0.3 to 1 uM incubated for 24 hrs by propidium iodide staining based flow cytometry; type: functional; conditions: dose 0.3-1 µM
[19] = system: CWR22R; test: Induction of cell cycle arrest in human 22Rv1 cells assessed as accumulation of cells at sub-G1 phase at 0.3 to 1 uM incubated for 24 hrs by propidium iodide staining based flow cytometry; type: functional; conditions: dose 0.3-1 µM
[20] = system: CWR22R; test: Induction of apoptosis in human 22Rv1 cells at 0.3 to 1 uM incubated for 24 hrs by AnnexinV-FITC/PI staining based flow cytometry; type: functional, cell-based; conditions: dose 0.3-1 µM
[21] = biological target: T1, Cyclin-dependent kinase 9; test: Induction of CDK9 degradation in human 22Rv1 cells assessed as decrease in cyclin A2 protein expression at 3 uM measured for 36 hrs by DIA-based proteomics analysis; type: cell-based
[22] = biological target: T1, Cyclin-dependent kinase 9; test: Induction of CDK9 degradation in human 22Rv1 cells assessed as decrease in cyclin B1 protein expression at 3 uM measured for 36 hrs by DIA-based proteomics analysis; type: cell-based
[23] = biological target: T1, Cyclin-dependent kinase 9; test: Induction of CDK9 degradation in human 22Rv1 cells assessed as decrease in cyclin D1 protein expression at 3 uM measured for 36 hrs by DIA-based proteomics analysis; type: cell-based
[24] = biological target: T1, Cyclin-dependent kinase 9; test: Induction of CDK9 degradation in human 22Rv1 cells assessed as decrease in cyclin C protein expression at 3 uM measured for 36 hrs by DIA-based proteomics analysis; type: cell-based
[25] = biological target: T1, Cyclin-dependent kinase 9; test: Induction of CDK9 degradation in human 22Rv1 cells assessed as downregulation of AR protein expression at 3 uM measured for 36 hrs by DIA-based proteomics analysis; type: cell-based
[26] = biological target: T1, Cyclin-dependent kinase 9; test: Induction of CDK9 degradation in human 22Rv1 cells assessed as inhibition of Ser2 phosphorylation of RNA Pol II CTD at 0.3 to 3 uM incubated for 24 hrs by immunoblot analysis; type: cell-based; conditions: dose 0.3-3 µM
[27] = biological target: T1, Cyclin-dependent kinase 9; test: Induction of CDK9 degradation in human 22Rv1 cells assessed as downregulation of MCL1 protein expression at 0.3 to 3 uM incubated for 24 hrs by immunoblot analysis; type: cell-based; conditions: dose 0.3-3 µM
[28] = biological target: T2, Cyclin-T1; test: Induction of HyT-mediated degradation of Cyclin T1 in human 22Rv1 cells at 3 uM incubated for 24 hrs by immunoblot analysis relative to control; type: cell-based
[29] = biological target: T1, Cyclin-dependent kinase 9; test: Induction of HyT-mediated degradation of CDK9 in human 22Rv1 cells at 3 uM incubated for 24 hrs by immunoblot analysis relative to control; type: cell-based
[30] = biological target: T1, Cyclin-dependent kinase 9; test: Induction of HyT-mediated degradation of CDK9 in human 22Rv1 cells assessed as reduction in CDK9 protein level at 3 uM incubated for 24 hrs by immunoblot analysis relative to control; type: cell-based; design: scale not given: the % may be the effect or the level left
[31] = system: CWR22R; test: Downregulation of cyclin D1 protein expression in human 22Rv1 cells at 2 uM incubated for 24 hrs by DIA-based proteomics analysis; type: functional, cell-based
[32] = system: CWR22R; test: Upregulation of […] protein expression in human 22Rv1 cells at 2 uM incubated for 24 hrs by DIA-based proteomics analysis; type: functional, cell-based

In the case of `CC(C)[C@@H]1CC[C@@H](C)C[C@H]1OCC(=O)NCCOCCS(=O)(=O)N1CCC(C(=O)Nc2ncc(SCc3ncc(C(C)(C)C)o3)s2)CC1`, the Activity [1] is reported as “Active” and the Activity [2] is reported as “Active”.

For `CC(C)(C)c1cnc(CSc2cnc(NC(=O)C3CCN(S(=O)(=O)CCNC(=O)NC45CC6CC(CC(C6)C4)C5)CC3)s2)o1`, the Activity [1] was “Active” and the Activity [3] was “Active”.

For `CC(C)(C)c1cnc(CSc2cnc(NC(=O)C3CCN(S(=O)(=O)CCNC(=O)CC45CC6CC(CC(C6)C4)C5)CC3)s2)o1`, the Activity [1] was “Active” and the Activity [3] was “Active”.

`CC(C)[C@@H]1CC[C@@H](C)C[C@H]1OCC(=O)NCCCCN1CCC(C(=O)Nc2ncc(SCc3ncc(C(C)(C)C)o3)s2)CC1` was tested, and the Activity [1] was “Active” and the Activity [3] was “Active”.

With `CC(C)(C)OC(=O)NC(=NCCC[C@@H](NC(=O)OC(C)(C)C)C(=O)NCCS(=O)(=O)N1CCC(C(=O)Nc2ncc(SCc3ncc(C(C)(C)C)o3)s2)CC1)NC(=O)OC(C)(C)C` the Activity [1] was “Active” and the Activity [3] was “Active”.

With `CC(C)[C@@H]1CC[C@@H](C)C[C@H]1OCC(=O)NCCN1CCC(C(=O)Nc2ncc(SCc3ncc(C(C)(C)C)o3)s2)CC1` the Activity [1] was “Active” and the Activity [3] was “Active”.

With `CC(C)(C)c1cnc(CSc2cnc(NC(=O)C3CCN(CC(=O)NCCOCCOCCOCCNc4cccc5c4C(=O)N(C4CCC(=O)NC4=O)C5=O)CC3)s2)o1` (stereo not given) the Activity [4] was “Active”, the Activity [5] was 40.2% and the inhibition [6] was “Active”. The Activity [7] was “Active”, the Activity [8] was “Active” and the Activity [9] was “Active”. The Activity [10] was “Active”, the Activity [11] was “Active” and the Activity [12] was “Active”. The Activity [13] was “Active”, the Activity [14] was “Active” and the Activity [15] was “Active”. The IC50 [16] was 49 nM, the inhibition [17] was “Active” and the Activity [18] was “Active”. For the same compound, the Activity [19] was “Active”, the Activity [20] was “Active” and the Activity [21] was “Active”. The Activity [22] was “Active”, the Activity [23] was “Active” and the Activity [24] was “Active”. For the same compound, the Activity [25] was “Active”, the Activity [26] was “Active” and the Activity [27] was “Active”.

Compound `CC(C)[C@@H]1CC[C@@H](C)C[C@H]1OCC(=O)NCCCOCCS(=O)(=O)N1CCC(C(=O)Nc2ncc(SCc3ncc(C(C)(C)C)o3)s2)CC1` has an Activity [28] of under 40% and an Activity [29] of under 40%.

Compound `CC(C)[C@@H]1CC[C@@H](C)C[C@H]1OCC(=O)N1CCN(CCS(=O)(=O)N2CCC(C(=O)Nc3ncc(SCc4ncc(C(C)(C)C)o4)s3)CC2)CC1` has an Activity [30] of over 50%.

In the case of `CC(C)(C)c1cnc(CSc2cnc(NC(=O)C3CCNCC3)s2)o1` [BMS-387032], the inhibition [31] is reported as “Active”, the Activity [32] is reported as “Active” and the IC50 [16] is reported as 384 nM. For the same compound, the Activity [18] was “Active”, the Activity [19] was “Active” and the Activity [20] was “Active”.
